Reference: PMC7506137, “Selective Phosphodiesterase 1 Inhibitor BTTQ Reduces Blood Pressure in Spontaneously Hypertensive and Dahl Salt Sensitive Rats: Role of Peripheral Vasodilation” (Frontiers in Physiology, 2020)
Where two headings read alike, the source gives them in different places.

Test: Plasma exposure (dried blood spot) after single oral dose
Assay type: in vivo
Conditions: male, Sprague Dawley, rat, whole blood (dried blood spot), po
Procedure: Male Sprague Dawley rats at 6 to 7 weeks were dosed orally by p.o. gavage with different doses of BTTQ formulated in 1% hydroxyethlycellulose (Dow Corning, Midland, MI, United States) (w/v), 0.25% polysorbate 80 (Sigma-Aldrich, St. Louis, MO, United States) (v/v), and 0.05% antifoam (v/v; Dow Corning, Midland, MI, United States) in purified water. Following dosing, ear temperature was measured by using a k-type thermocouple probe digital thermometer (Cole Parmer) every hour for 6 h and then at 24 h. Blood samples for plasma exposure measurement were obtained at the same time. Blood was collected via a tail snip directly into a 20-μL EDTA-coated capillary and immediately spotted onto a Whatman DMPK-C DBS card (GE Healthcare Bio-Sciences). Tail snips were performed by removing approximately 1 mm of the tail by using a scalpel. Blood flow was initiated by gentle squeezing of the tail. No analgesia or anesthesia was used during blood collections. A single sample and spot were collected per time point. The DBS cards were allowed to dry for approximately 2 h at room temperature, after which the cards were placed in a zip-top bag, stored, and shipped at ambient temperature.

[1] = 1 mg/kg, oral 1 mg/kg, FU 0.053, read-out: Unbound Concentration, individual animals
[2] = 1 mg/kg, oral 1 mg/kg, dried blood spot, read-out: Concentration, Mean
[3] = 1 mg/kg, oral 1 mg/kg, dried blood spot, read-out: Concentration, individual animals
[4] = 1 mg/kg, oral 1 mg/kg, FU 0.053, read-out: Unbound Concentration, Mean
[5] = 3 mg/kg, oral 3 mg/kg, FU 0.053, read-out: Unbound Concentration, Mean
[6] = 3 mg/kg, oral 3 mg/kg, FU 0.053, read-out: Unbound Concentration, individual animals
[7] = 3 mg/kg, oral 3 mg/kg, dried blood spot, read-out: Concentration, Mean
[8] = 3 mg/kg, oral 3 mg/kg, dried blood spot, read-out: Concentration, individual animals

concentration at 2 h [1]: 0.0885 µM
concentration at 2 h [2]: 1.65 µM
concentration at 2 h [3]: 1.67 µM
concentration at 3 h [4]: 0.0621 µM
concentration at 3 h [1]: 0.0641 µM
concentration at 3 h [2]: 1.17 µM
concentration at 3 h [3]: 1.21 µM
concentration at 4 h [4]: 0.0573 µM
concentration at 4 h [1]: 0.0477 µM
concentration at 4 h [2]: 1.08 µM
concentration at 4 h [3]: 0.9 µM
concentration at 5 h [4]: 0.0496 µM
concentration at 5 h [1]: 0.0411 µM
concentration at 5 h [2]: 0.935 µM
concentration at 5 h [3]: 0.775 µM
concentration at 6 h [4]: 0.0413 µM
concentration at 6 h [1]: 0.0413 µM
concentration at 6 h [2]: 0.78 µM
concentration at 6 h [3]: 0.779 µM
concentration at 24 h [4]: 0.00213 µM
concentration at 24 h [2]: 0.0402 µM
concentration at 1 h [5]: 0.197 µM
concentration at 1 h [6]: 0.142 µM
concentration at 1 h [7]: 3.71 µM
concentration at 1 h [8]: 2.67 µM
concentration at 2 h [5]: 0.195 µM
concentration at 2 h [6]: 0.166 µM
concentration at 2 h [7]: 3.69 µM
concentration at 2 h [8]: 3.14 µM
concentration at 3 h [5]: 0.168 µM
concentration at 3 h [6]: 0.169 µM
concentration at 3 h [7]: 3.17 µM
concentration at 3 h [8]: 3.18 µM
concentration at 4 h [5]: 0.148 µM
concentration at 4 h [6]: 0.155 µM
concentration at 4 h [7]: 2.79 µM
concentration at 4 h [8]: 2.92 µM
concentration at 5 h [5]: 0.115 µM
concentration at 5 h [6]: 0.142 µM
Compound: O=c1c2nnc(C3(C4CC4)CC3)n2c2c(n1CC1CC1)CCCC2 [BTTQ, 1-[1,1′-bi(cyclopropyl)-1-yl]-5-(cyclopropylmethyl)-6,7,8,9-tetrahydro[1,2,4]triazolo[4,3-A]quinoxaline-4(5H)-one]
